Experimental data from patent US12496281B2, “Compounds for prevention and treatment of hemorrhage and vasculature instability” (Abrexa Pharmaceuticals, Inc., priority 2020, dated 2025).

What was measured:
fibrin/fibrinogen = assay: Double immunofluorescence of intravascular fibrin/fibrinogen deposition in brain microvessels; format: in vivo; settings: stroke rats; delayed tPA alone or with J147
Method: (§1) Methods: At the indicated time point, animals were euthanized with CO2 and transcardially perfused with 200 mL ice-cold PBS (0.01 M, pH 7.4) followed by 4% paraformaldehyde (PFA). The brains were removed and post-fixed in 4% PFA solution for overnight at 4° C. Brain samples were then cryoprotected by immersion in 10%, 20%, and 30% gradient sucrose solutions for 48 h at 4° C. respectively. After that, the brains were embedded in optimal cutting temperature (OCT) compound. Coronal sections (15 um) were cut at 0.4 to 1.4 mm posterior to bragma using a cryostat and mounted on positively charged slides. Every twentieth coronal section for a total five sections was used for immunohistochemistry. The primary antibodies: IBa-1 (1:200, Wako), MPO (1:200, Abcam), MMP9 (1:100, R&D), EBA (endothelial barrier antigen, a marker for endothelium in the vessels, 1:500, Covance), fibrinogen (1:200, Dako), thrombocyte (1:200, lifespan) and PAI-1 (1:200, Novus Biologicals) were used. […]
(§2) For quantification, the number of immunoreactive vessels were counted in the ischemic boundary zone. All immunostaining data was analyzed by an investigator blinded to experimental groups using Image Pro plus software (version 5.1, Media Cybernetics, Inc.) and data are presented as the density of immunoreactive vessels relative to the imaged area (mm2) as described. Data were expressed as mean±standard error of the mean (SEM). […]

[1] = tested on: thromboembolic middle cerebral artery occlusion (MCAO); assay: J147+tPA expanded study: infarct volume, intracerebral hemorrhage, mortality (Example 4A); format: in vivo, SD rats
Method: Objective: To determine whether J147 can prevent tPA-associated brain hemorrhage and extend the treatment time window of tPA in a clinically relevant thromboembolic stroke model in rats. • J147 compound: Stock solution: 60 mg/ml DMSO, in 60 ul/vial, stored at −20° C. • Working solution: 3 mg/ml in 5% DMSO, 70% PEG200 and 25% normal saline, prepared prior to injection. • One vial stock solution was warmed at 37° C. and mixed with 1140 ul sterilized solution (PEG200: saline, 2.8:1). • Recombinant human tPA (Alteplase, 2.2 mg/vial): Reconstituted with 1.1 ml water (2 mg/ml). 10 mg/kg, 10% bonus injection, 90%30 min. via mini pump. A. Infarct Volume and Intracerebral Hemorrhage
Methods: Male SD rats (280-300 g) were subjected to thromboembolic middle cerebral artery occlusion (MCAO) and treated with saline at 4 hours, tPA (tissue-type plasminogen activator; 10 mg/kg, IV) at 4 hours, and combined J147 (10 mg/kg, IV) plus tPA at 4 hours after onset of ischemia. Bederson score was examined prior to the sacrifice at 72 h after stroke. Infarct volumes, brain hemorrhage, and animal mortality were measured.

microglia (Iba-1) = assay: Immunostaining of microglia (Iba-1) expansion after thromboembolic stroke; format: in vivo, rats; settings: poststroke; delayed tPA alone or with J147; n=3 animals per group
Method: as §1, §2

platelets = assay: Double immunofluorescence of platelet (thrombocyte) accumulation in brain microvessels; format: in vivo; settings: stroke rats; delayed tPA alone or with J147
Method: as §1, §2

MMP-9 = assay: Double immunohistochemistry for MMP-9 expression in the brain after thromboembolic stroke; format: in vivo, rats; settings: 24 hours after stroke; tPA at 4 h alone or with J147; n=3 animals per group
Method: MMPs, in particular MMP-9, play a critical role in the stroke-associated blood-brain barrier (BBB) disruption, hemorrhagic transformation and neuroinflammation after stroke. Double immunohistochemistry was performed to determine MMP-9 expression in the brain at 24 hours after stroke (FIG. 7A).
Methods: At the indicated time point, animals were euthanized with CO2 and transcardially perfused with 200 mL ice-cold PBS (0.01 M, pH 7.4) followed by 4% paraformaldehyde (PFA). The brains were removed and post-fixed in 4% PFA solution for overnight at 4° C. Brain samples were then cryoprotected by immersion in 10%, 20%, and 30% gradient sucrose solutions for 48 h at 4° C. respectively. After that, the brains were embedded in optimal cutting temperature (OCT) compound. Coronal sections (15 um) were cut at 0.4 to 1.4 mm posterior to bragma using a cryostat and mounted on positively charged slides. […]
as §2

[2] = tested on: platelet-leukocyte aggregates; assay: Flow cytometry of platelet-leukocyte aggregates in whole blood after stroke; format: in vivo; settings: whole blood at 24 hours after ischemia onset; vs saline-treated stroke rats; n=3 rats per group
Method: (§3) Elevated platelet activation and platelet-leukocyte interaction contribute importantly to pro-inflammatory and thrombotic events during ischemia-reperfusion injury after stroke. We used flow cytometry to analyze platelet activation and platelet-leukocyte aggregates in whole blood at 24 hours after ischemia onset (FIG. 9A).
(§4) Methods: Blood was drawn into a heparinized capillary tube via the retro-orbital plexus at 24 h after stroke. Whole blood was diluted 1:10 with Flow Cytometry Staining Buffer (eBioscience) containing rat Fc block anti-rat CD32. For evaluation of platelet activation, sample was co-stained with the FITC mouse anti-rat CD42d (1:200, RPM.4) for platelets and PE/Cy7 mouse anti-rat CD62P (1:100, RMP-1) for P-selectin expression. For detection of platelet-leukocyte aggregates (PLA) formation, samples were co-stained with FITC mouse anti-rat CD42d (1:200, RPM.4), PE mouse anti-rat granulocytes (1:100, RP-1), APC mouse anti-rat CD11b (1:50, WT.5) and PE/Cy7 mouse anti-rat CD45 (1:100, OX-1). Isotype-matched control antibodies were used to differentiate non-specific background signal from specific antibody signals. The samples were analyzed on the BD Accuri™ C6 flow cytometer.

[3] = tested on: platelet P-selectin (CD62P); assay: Flow cytometry of platelet activation (P-selectin) in whole blood after stroke; format: in vivo; settings: whole blood at 24 hours after ischemia onset; vs saline-treated stroke rats
Method: as §3, §4

[4] = tested on: neutrophil (MPO) infiltration; assay: Immunostaining of brain neutrophil (MPO) infiltration after thromboembolic stroke; format: in vivo, rats; settings: poststroke; delayed tPA alone or with J147; n=3 animals per group
Method: as §1, §2

[5] = tested on: suture-type transient middle cerebral artery occlusion (MCAO) model; assay: Suture transient MCAO model, 2 h ischemia, reperfusion 24 h (Example 1); format: in vivo, Sprague Dawley rats; settings: for infarct volume (TTC staining) relative to placebo: 24 h after reperfusion
Method: In this model, J147 was administered i.v. at doses of 1 mg/kg, 10 mg/kg and 30 mg/kg of total body weight immediately after reperfusion (i.e., about 2 hours after ischemia onset). […] Maximum volume (iv., bolus)=5 ml/kg. (ip., bolus)=10 ml/kg. […] The Bederson scale is a global neurological assessment that was developed to measure neurological impairments following stroke. Tests include forelimb flexion, resistance to lateral push and circling behavior. In this case, a Bederson grading scale of 0-5 was used to assess behavioral deficits after reperfusion. This scoring scale is a simple way to reveal basic neurological deficits.

[6] = tested on: suture MCAO-induced ischemia followed by reperfusion; assay: J147 dose-response, 2-hour suture MCAO followed by reperfusion, 72 h (Example 3); format: in vivo, SD rats
Method: Objective: […] Methods: […] J147 compound (1.0, 10, 30 mg/kg) and vehicle were administered at 2 hours after onset of ischemia (FIG. 5). Bederson score was examined prior to the sacrifice at 72 h after stroke. Infarct volumes in TTC-stained brain coronal sections were measured.

eMCAO, 4 μm blood clot = assay: J147 alone in embolic MCAO (eMCAO) model without tPA or reperfusion (Example 5); format: in vivo, SD rats; settings: J147 alone 1 mg/ml or 10 mg/ml i.v., or 30 mg/ml i.p. two hours after stroke onset; no tPA, no reperfusion; 24 hours after stroke
Method: In this example, an eMCAO experiment was performed to determine if J147 alone (i.e., without administration of TPA or other thrombolytic intervention) provided any therapeutic benefit for stroke in the absence of reperfusion caused by TPA.

[7] = tPA 10 mg/kg IV at 4 hours, alone or with J147 10 mg/kg IV, 72 h after stroke
[8] = J147 1.0, 10, 30 mg/kg at 2 hours after onset of ischemia, 72 h after stroke, dose-dependent, vs vehicle

Compound	fibrin/fibrinogen deposited in downstream microvessels (fibrin/fibrinogen)	brain hemorrhage / hemorrhagic transformation [1, 7]	brain infarction / infarct volume [1, 7]	mortality rate ([1]; treatment at 4 h after onset of ischemia, log-rank test, saline 25%) [%]	Death (number of rats) ([1]; treatment at 4 h after onset of ischemia, tPA n = 22, J147 plus tPA n = 17, saline 3 of 12)	microglia expansion (number of Iba-1-positive cells) (microglia (Iba-1))	platelets deposited in downstream microvessels (platelets)	MMP-9 expression on individual cells and brain microvessels (MMP-9)	platelet-granulocyte (platelet-neutrophil) aggregates [2]	platelet activation (platelet P-selectin expression) [3]	neutrophil (MPO positive cells) infiltration into the brain parenchyma [4]	infarct volume (TTC staining) relative to placebo ([5]; 1 mg/kg J147 iv)	infarct volume (TTC staining) relative to placebo ([5]; 10 mg/kg J147 iv)	infarct volume (TTC staining) relative to placebo ([5]; J147 intraperitoneally)	optimal effective dose ([5]; iv, immediately after reperfusion, doses tested 1, 10 and 30 mg/kg) [mg/kg]	infarct volumes [6, 8]	neurological deficit (Bederson score) [6, 8]	effective optimal dose ([6]; treatment of acute ischemic stroke in rats, doses tested 1.0, 10, 30 mg/kg) [mg/kg]	protection from stroke (infarct volume, TTC staining) (eMCAO, 4 μm blood clot)
tPA: Recombinant human tPA (Alteplase), tissue-type plasminogen activator; thrombolytic approved for the treatment of stroke	markedly increased	worsened	did not decrease	32	7	no significant effect	markedly increased	further increased	no additional effect	no additional effect	further augmented	–	–	–	–	–	–	–	–
COc1cccc(/C=N/N(C(=O)C(F)(F)F)c2ccc(C)cc2C)c1 [Compound J147]	–	–	–	–	–	–	–	–	–	–	–	insignificant reduction	large reduction	modest reduction	10	significantly reduced	significantly reduced	10	fails to provide any significant protection
